Measured values taken from ChEMBL document CHEMBL5120852, “New Aβ(1-42) ligands from anti-amyloid antibodies: Design, synthesis, and structural interaction” (Eur J Med Chem, 2022).
Active and inactive are the calls of the source. The calls are words filed in the database; no cut-off is given here. Where a SMILES comes first, the peptide text is derived from it. [ ]: non-standard residue; d: D form. Aib = CC(C)(N)C(=O)O

How the values were obtained:
[1] = target: T1, Amyloid-beta precursor protein (Homo sapiens, UniProt P05067); assay: Inhibition of 15N-labelled amyloid beta (1 to 42) (unknown origin) expressed in Escherichia coli BL21 (DE3)-pLysS cells fibrillization assessed as absence of mature fibrils at 1:20 protein to compound molar ratio incubated for 192 hrs by AFM microscopic analysis
T1 sequence (P05067 whole entry): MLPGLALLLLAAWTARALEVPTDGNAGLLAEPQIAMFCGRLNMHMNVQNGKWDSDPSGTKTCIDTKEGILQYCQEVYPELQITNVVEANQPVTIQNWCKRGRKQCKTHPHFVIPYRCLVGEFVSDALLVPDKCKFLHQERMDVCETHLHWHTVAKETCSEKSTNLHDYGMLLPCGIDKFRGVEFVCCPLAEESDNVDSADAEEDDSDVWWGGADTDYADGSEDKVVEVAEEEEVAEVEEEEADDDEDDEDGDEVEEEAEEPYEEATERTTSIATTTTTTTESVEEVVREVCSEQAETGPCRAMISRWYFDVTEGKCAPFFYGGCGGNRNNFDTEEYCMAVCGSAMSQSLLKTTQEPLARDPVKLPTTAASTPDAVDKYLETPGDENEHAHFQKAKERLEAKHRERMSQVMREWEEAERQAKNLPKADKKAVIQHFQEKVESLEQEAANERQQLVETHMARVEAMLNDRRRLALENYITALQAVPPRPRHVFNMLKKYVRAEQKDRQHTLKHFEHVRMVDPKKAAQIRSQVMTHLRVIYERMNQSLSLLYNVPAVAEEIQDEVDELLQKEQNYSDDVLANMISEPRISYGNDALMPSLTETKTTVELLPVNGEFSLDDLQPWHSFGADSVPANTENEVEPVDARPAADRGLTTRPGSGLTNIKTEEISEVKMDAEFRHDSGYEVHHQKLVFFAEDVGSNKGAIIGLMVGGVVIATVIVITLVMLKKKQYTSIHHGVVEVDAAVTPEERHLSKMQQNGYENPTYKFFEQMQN

SH-SY5Y = assay: Neuroprotective activity against amyloid beta (1 to 42)-induced cytotoxicity in human SH-SY5Y cells assessed as increase in cell viability at 0.000001 to 10 mM preincubated with compound for 48 hrs followed by stimulation with amyloid beta(1 to 42) and measured after 18 hrs by MTT assay; format: functional, cell-based; settings: dose lower 1 nM, dose upper 10.0 mM
[2] = target: T1, Amyloid-beta precursor protein; assay: Disaggregation of 15N-labelled amyloid beta (1 to 42) (unknown origin) expressed in Escherichia coli BL21 (DE3)-pLysS cells in pH 7.4 buffer assessed as absence of mature fibrils at 1:20 protein to compound molar ratio incubated for 192 hrs by AFM microscopic analysis
[3] = target: T1, Amyloid-beta precursor protein; assay: Inhibition of 15N-labelled amyloid beta (1 to 42) (unknown origin) expressed in Escherichia coli BL21 (DE3)-pLysS cells fibrillization assessed as absence of observable number of protofibrils at 1:20 protein to compound molar ratio incubated for 192 hrs by AFM microscopic analysis
[4] = target: T1, Amyloid-beta precursor protein; assay: Disaggregation of 15N-labelled amyloid beta (1 to 42) (unknown origin) expressed in Escherichia coli BL21 (DE3)-pLysS cells in pH 7.4 buffer assessed as absence of bundle of fibrils at 1:20 protein to compound molar ratio incubated for 192 hrs by AFM microscopic analysis
[5] = target: T1, Amyloid-beta precursor protein; assay: Binding affinity to 5R to 22E residues of 15N-labelled amyloid beta (1 to 42) (unknown origin) expressed in Escherichia coli BL21 (DE3)-pLysS cells assessed as chemical shift perturbation by measuring dissociation constant by Chemical shift mapping NMR analysis
[6] = target: T1, Amyloid-beta precursor protein; assay: Inhibition of 15N-labelled amyloid beta (1 to 42) (unknown origin) expressed in Escherichia coli BL21 (DE3)-pLysS cells fibrillization assessed as decrease in indicator of fibrillization (DoF) by AFM microscopic analysis

Row | Compound | inhibition [1] | Activity (SH-SY5Y) | Activity [2] | inhibition [3] | Activity [4] | Kd [5] | Activity [6]
1 | CC(C)(NC(=O)[C@@H](N)Cc1c[nH]c2ccccc12)C(=O)N[C@@H](Cc1c[nH]cn1)C(=O)O (H-Trp-[Aib]-His-OH) | Active | Active | Active | Active | Active | 5.74 mM | 0.03
2 | H-SYSTPGK-OH | Active | Active | Active | Active | Active | 0.65 mM | 0.06
